ChEMBL document CHEMBL1201862, “PubChem BioAssay data set” (2004)
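Five concentrations, 48 hours, 96-well plates. GI50 = concentration required for 50% inhibition of growth.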 Calls of active or inactive are those of the source. Rule as the data show it: active = GI50 up to about 1.1 µM and inactive = higher.

How the values were obtained:
Assay in all cases: inhibition of tumour cell growth, NCI panel, 48 h
[1] = test system: HT-29
[2] = test system: OVCAR-8
[3] = test system: IGROV-1
[4] = test system: OVCAR-5
[5] = test system: Malme-3M
[6] = test system: LOX IMVI
[7] = test system: KM-20L2
[8] = test system: UO-31
[9] = test system: DMS-273
[10] = test system: SF-268
[11] = test system: HOP-62
[12] = test system: HL-60
[13] = test system: SK-MEL-5
[14] = test system: 786-0
[15] = test system: SN12C
[16] = test system: SK-MEL-2
[17] = test system: NCI-H522
[18] = test system: HCC 2998
[19] = test system: CAKI-1
[20] = test system: UACC-257
[21] = test system: SF-295
[22] = test system: LXFL 529
[23] = test system: A498
[24] = test system: M14
[25] = test system: UACC-62
[26] = test system: EKVX
[27] = test system: OVCAR-3
[28] = test system: SK-OV-3
[29] = test system: K562
[30] = test system: SNB-75
[31] = test system: SK-MEL-28
[32] = test system: CCRF-CEM
[33] = test system: DLD-1
[34] = test system: HCT-116
[35] = test system: OVCAR-4
[36] = test system: COLO 205
[37] = test system: DMS-114
[38] = test system: RPMI-8226
[39] = test system: SF-539
[40] = test system: U-251
[41] = test system: NCI-H226
[42] = test system: TK-10
[43] = test system: MOLT-4
[44] = test system: ACHN
[45] = test system: A549
[46] = test system: NCI-H460
[47] = test system: M19-MEL
[48] = test system: RXF 393
[49] = test system: SR
[50] = test system: KM12
[51] = test system: NCI-H23
[52] = test system: HOP-18
[53] = test system: HCT-15
[54] = test system: HOP-92
[55] = test system: SNB-78
[56] = test system: SW-620
[57] = test system: SNB-19

In the case of `CCOP(=O)(C/C(O)=C1\C(=O)C(CCCCNC(=O)OC(C)(C)C)N(Cc2ccccc2)C1=O)OCC` (centres undefined), the GI50 [1] is reported as > 100 µM (inactive), the GI50 [2] is reported as > 100 µM (inactive) and the GI50 [3] is reported as > 100 µM (inactive). The GI50 [4] was > 100 µM (inactive), the GI50 [5] was > 100 µM (inactive) and the GI50 [6] was > 100 µM (inactive). The GI50 [7] was > 100 µM (inactive), the GI50 [8] was > 100 µM (inactive) and the GI50 [9] was > 100 µM (inactive). The GI50 [10] was > 100 µM (inactive), the GI50 [11] was > 100 µM (inactive) and the GI50 [12] was 63.7 µM (inactive). The GI50 [13] was > 100 µM (inactive), the GI50 [14] was > 100 µM (inactive) and the GI50 [15] was > 100 µM (inactive). For the same molecule, the GI50 [16] was > 100 µM (inactive), the GI50 [17] was 1.12 µM (inactive) and the GI50 [18] was > 100 µM (inactive). The GI50 [19] was > 100 µM (inactive), the GI50 [20] was > 100 µM (inactive) and the GI50 [21] was > 100 µM (inactive). For the same molecule, the GI50 [22] was > 100 µM (inactive), the GI50 [23] was > 100 µM (inactive) and the GI50 [24] was > 100 µM (inactive). For the same molecule, the GI50 [25] was > 100 µM (inactive), the GI50 [26] was > 100 µM (inactive) and the GI50 [27] was > 100 µM (inactive). The GI50 [28] was > 100 µM (inactive), the GI50 [29] was > 100 µM (inactive) and the GI50 [30] was > 100 µM (inactive). The GI50 [31] was > 100 µM (inactive), the GI50 [32] was > 100 µM (inactive) and the GI50 [33] was > 100 µM (inactive). The GI50 [34] was > 100 µM (inactive), the GI50 [35] was 94.2 µM (inactive) and the GI50 [36] was > 100 µM (inactive). The GI50 [37] was > 100 µM (inactive), the GI50 [38] was > 100 µM (inactive) and the GI50 [39] was > 100 µM (inactive). For the same molecule, the GI50 [40] was > 100 µM (inactive), the GI50 [41] was > 100 µM (inactive) and the GI50 [42] was > 100 µM (inactive). The GI50 [43] was 78.7 µM (inactive), the GI50 [44] was > 100 µM (inactive) and the GI50 [45] was > 100 µM (inactive). For the same molecule, the GI50 [46] was > 100 µM (inactive), the GI50 [47] was > 100 µM (inactive) and the GI50 [48] was > 100 µM (inactive). The GI50 [49] was 69.2 µM (inactive), the GI50 [50] was > 100 µM (inactive) and the GI50 [51] was > 100 µM (inactive). For the same molecule, the GI50 [52] was 80.5 µM (inactive).

With `N#CC1(C#N)C=CC(=C2OCC3CCCN23)C=C1` (centres undefined) the GI50 [1] was > 100 µM (inactive), the GI50 [2] was > 100 µM (inactive) and the GI50 [3] was > 100 µM (inactive). The GI50 [4] was > 100 µM (inactive), the GI50 [53] was > 100 µM and the GI50 [5] was > 100 µM (inactive). For the same molecule, the GI50 [6] was > 100 µM (inactive), the GI50 [7] was > 100 µM (inactive) and the GI50 [8] was > 100 µM (inactive). The GI50 [9] was > 100 µM (inactive), the GI50 [10] was > 100 µM (inactive) and the GI50 [11] was > 100 µM (inactive). The GI50 [12] was 87.5 µM (inactive), the GI50 [13] was 37.8 µM (inactive) and the GI50 [14] was > 100 µM (inactive). For the same molecule, the GI50 [15] was > 100 µM (inactive), the GI50 [16] was > 100 µM (inactive) and the GI50 [17] was > 100 µM (inactive). The GI50 [18] was > 100 µM (inactive), the GI50 [19] was > 100 µM (inactive) and the GI50 [20] was > 100 µM (inactive). The GI50 [21] was > 100 µM (inactive), the GI50 [22] was > 100 µM (inactive) and the GI50 [54] was 96.2 µM (inactive). For the same molecule, the GI50 [23] was > 100 µM (inactive), the GI50 [24] was > 100 µM (inactive) and the GI50 [55] was > 100 µM (inactive). The GI50 [25] was > 100 µM (inactive), the GI50 [28] was > 100 µM (inactive) and the GI50 [29] was > 100 µM (inactive). The GI50 [30] was 52.2 µM (inactive), the GI50 [56] was > 100 µM (inactive) and the GI50 [32] was 77.1 µM (inactive). For the same molecule, the GI50 [33] was > 100 µM (inactive), the GI50 [34] was > 100 µM (inactive) and the GI50 [35] was > 100 µM (inactive). The GI50 [36] was > 100 µM (inactive), the GI50 [37] was > 100 µM (inactive) and the GI50 [38] was > 100 µM (inactive). For the same molecule, the GI50 [39] was > 100 µM (inactive), the GI50 [40] was > 100 µM (inactive) and the GI50 [41] was > 100 µM (inactive). The GI50 [42] was > 100 µM (inactive), the GI50 [43] was > 100 µM (inactive) and the GI50 [44] was > 100 µM (inactive). For the same molecule, the GI50 [45] was > 100 µM (inactive), the GI50 [46] was > 100 µM (inactive) and the GI50 [47] was > 100 µM (inactive). For the same molecule, the GI50 [48] was > 100 µM (inactive), the GI50 [57] was > 100 µM (inactive) and the GI50 [50] was > 100 µM (inactive). The GI50 [52] was > 100 µM (inactive).

For `CN(C)CC1CCCC(CN(C)C)C1OC(=O)c1ccccc1` (centres undefined), the GI50 [1] was > 100 µM (inactive), the GI50 [2] was > 100 µM (inactive) and the GI50 [3] was > 100 µM (inactive). The GI50 [4] was > 100 µM (inactive), the GI50 [53] was > 100 µM and the GI50 [5] was > 100 µM (inactive). The GI50 [6] was > 100 µM (inactive), the GI50 [7] was > 100 µM (inactive) and the GI50 [8] was > 100 µM (inactive). For the same molecule, the GI50 [9] was > 100 µM (inactive), the GI50 [10] was > 100 µM (inactive) and the GI50 [11] was > 100 µM (inactive). The GI50 [12] was > 100 µM (inactive), the GI50 [13] was > 100 µM (inactive) and the GI50 [14] was > 100 µM (inactive). The GI50 [15] was > 100 µM (inactive), the GI50 [16] was > 100 µM (inactive) and the GI50 [17] was > 100 µM (inactive). The GI50 [18] was > 100 µM (inactive), the GI50 [19] was > 100 µM (inactive) and the GI50 [20] was > 100 µM (inactive). The GI50 [21] was > 100 µM (inactive), the GI50 [22] was > 100 µM (inactive) and the GI50 [54] was > 100 µM (inactive). The GI50 [23] was > 100 µM (inactive), the GI50 [24] was > 100 µM (inactive) and the GI50 [55] was > 100 µM (inactive). For the same molecule, the GI50 [25] was > 100 µM (inactive), the GI50 [26] was > 100 µM (inactive) and the GI50 [27] was > 100 µM (inactive). The GI50 [28] was > 100 µM (inactive), the GI50 [29] was > 100 µM (inactive) and the GI50 [30] was > 100 µM (inactive). For the same molecule, the GI50 [31] was > 100 µM (inactive), the GI50 [56] was > 100 µM (inactive) and the GI50 [32] was > 100 µM (inactive). The GI50 [33] was > 100 µM (inactive), the GI50 [34] was > 100 µM (inactive) and the GI50 [35] was > 100 µM (inactive). For the same molecule, the GI50 [36] was > 100 µM (inactive), the GI50 [38] was > 100 µM (inactive) and the GI50 [39] was > 100 µM (inactive). The GI50 [40] was > 100 µM (inactive), the GI50 [41] was > 100 µM (inactive) and the GI50 [42] was > 100 µM (inactive). For the same molecule, the GI50 [43] was > 100 µM (inactive), the GI50 [44] was > 100 µM (inactive) and the GI50 [45] was > 100 µM (inactive). For the same molecule, the GI50 [46] was > 100 µM (inactive), the GI50 [47] was > 100 µM (inactive) and the GI50 [48] was > 100 µM (inactive). For the same molecule, the GI50 [49] was > 100 µM (inactive), the GI50 [50] was > 100 µM (inactive) and the GI50 [51] was > 100 µM (inactive). The GI50 [52] was > 100 µM (inactive).
